# Key:
# [1] = Clinical trial, repeated vaginal application for 13 days: clinical and biological tolerance; assay type: in vivo, femme; settings: 10 µg vaginal, repeated for 13 days
# From the text: Ces événements d'intensité mineure n'ont pas empêché la poursuite de l'étude. La tolérance biologique a été excellente. Aucune anomalie ayant une signification clinique n'a été rapportée.
# [2] = assay type: in vivo, femme
# Method: Une première solution consiste à réduire la teneur en principe actif, typiquement à des doses de 5 µg ou même 2,5 µg par application unitaire.
# [3] = test system: récepteurs à haute affinité pour l'estradiol au niveau de l'épithélium vaginal; settings: estrogen receptors; cited from earlier work
# [4] = 10 µg, free micronised form in gel, single dose
compound,measurement,setting,value
C[C@]12CC[C@@H]3c4ccc(O)cc4CC[C@H]3[C@@H]1CC[C@@H]2O [17β-estradiol],tolérance biologique,[1],excellente
same,tolérance clinique,"[1]; sixteen subjects, free micronised form in gel",excellente pour treize sujets sur seize
same,"effets indésirables (céphalées, épisodes de vomissements et bouffées de chaleur)","[1]; sixteen subjects, minor intensity",Trois sujets ont signalé des effets indésirables
same,surface sous la courbe,"[2]; 10 µg vaginal gel, steady state",comparable à celle obtenue après la première application
same,pic plasmatique d'estradiol,"[2]; 10 µg vaginal gel, steady state compared with first application",tend à être plus faible et retardé
same,concentration plasmatique maximale du pic,[2]; [4],du même ordre que le taux physiologique moyen observés la première semaine de la phase folliculaire chez la femme fertile
same,time of the plasma peak (pic plasmatique),[2]; [4],une heure environ
C[C@]12CC[C@@H]3c4ccc(O)cc4CC[C@H]3[C@@H]1C[C@@H](O)[C@@H]2O [estriol],activity profile (agonist / antagonist),[3],"agoniste partiel, voire d'antagoniste"

# — EP0813412B1, “GEL FOR THE LOCAL HORMONOTHERAPY OF VAGINAL DRYNESS” (priority 1995, dated 1997)
